Test results from article PMC5007466, “VCP recruitment to mitochondria causes mitophagy impairment and neurodegeneration in models of Huntington's disease” (Nature Communications, 2016).

Key:
[1] = LC/MS detection of HV-3 in mouse brain and plasma; format: in vivo; details: LC/MS m/z 506.4
Text: The new figures above and related figure legends have all been added to the revised manuscript. The related discussion has been added on page 17 line 2 and line 5. The methods of ITC and immunoprecipitation with biotin-peptides have been added to the Method section (see pages 21-23) of […]
Comment 3: The in vivo use of TAT-tagged HV-3 peptide lacks essential PK/PD data. What is the PK/PD of the reagent with their osmotic pump delivery? The data in Supplemental Fig. 5B is simply unacceptable, with different background between control and HV-3, and with only a few cells shown and without any quantitation. Is there any long-term toxicity of such delivery? Did they measure adaptive immune response to the HV-3 peptide? And if there is such a response, do the immune reactions rather than inhibition of mHTT-VCP interactions underlying therapeutic effects? Response: For the analysis of PK/PD, we have to subcontract with bio-company. The cost will be a minimum of $80,000. Due to limited funds, we cannot afford such an expensive experiment. Working with the Mass Spectrometry Core Facility at Cleveland Clinic Foundation Research Center, we attempted to determine the concentration of HV-3 after treatment in mice by pump implantation. […]
by protein precipitation methods (see figure below). […]
proteins in mice after treatment. The data seem to be consistent with our findings that HV-3 binds to VCP. Because of current technical constraints to dissociate peptide from the binding proteins, we were not able to test the accurate concentration of the peptide HV-3 in brain tissues and plasma. Therefore, we […]
We would appreciate it if the reviewer could understand.
Based on the reviewer’s comment, in the revised manuscript, we removed the original supplemental […]
Regarding toxicity of HV3, we performed toxicity analysis of HV-3 in mice at Stanford University. […]
ions in positive electrospray ionization and the ion at 5 charged (m/z 506.4) has the highest intensity on the Shimadzu LC/MS 8050. (B) HV-3 at 5 charged (m/z 506.4) in positive electrospray ionization was monitored. […]

[2] = test system: HdhQ111 / HdhQ7 mouse striatal cells; assay: Mitochondrial membrane potential (TMRM), mouse striatal cells; format: cell-based
Protocol: Immortalized striatal cell lines HdhQ111 mutant and HdhQ7 wt cells were obtained from the CHDI Foundation. Cells were cultured in DMEM supplemented with 10% FBS, 100 μg/ml penicillin, 100 μg ml^−1 streptomycin, and 400 μg ml^−1 G418. Cells were grown at 33 °C in a 5% CO2 incubator. Cells within 14 passages were used in all experiments.
For silencing Htt and VCP in HD striatal cells, control siRNA, mouse Htt and mouse VCP siRNA were purchased from Thermo Fisher Scientific. HdhQ7 and HdhQ111 cells were transfected either with control siRNA, or Htt or VCP siRNA using TransIT-TKO Transfection Reagent (Mirus Bio, LLC), according to the manufacturer's instructions. The sequences for the siRNAs used in this study are as follows: mouse Htt, 5′-[…]-3′; Mouse VCP, 5′-GAGAGCAACCUUCGUAAG-3′; control non-targeting siRNA, 5′-TTCTCCGAACGTGTCACGT-3′.
To determine mitochondrial mass in cultures, cells were stained with antibodies against Tom20 or stained with Mitotracker green. The fluorescent density of Tom20 (1:500) or mitotracker green was quantitated using NIH Image J software. To measure the membrane potential of mitochondria in cultures, cells were incubated with 0.25 μM tetra-methyl rhodamine (Invitrogen Life Science) for 20 min at 37 °C. To determine lysosomal activity, cells were incubated with Lyso-ID Red dye (Enzo Life Science) for 30 min at 37 °C. The images were visualized by microscope and quantitation of the density of red fluorescence was carried out using NIH ImageJ software. For immunocytochemistry study, at least 100 cells per group were counted and quantitated by an observer blind to experimental conditions.

CSCC[C@H](NC(=O)[C@@H](NC(=O)[C@H](CC(C)C)NC(=O)[C@@H](NC(=O)[C@H](Cc1c[nH]cn1)NC(=O)CCCCCNC(=O)[C@H](CCCNC(=N)N)NC(=O)[C@H](CCCNC(=N)N)NC(=O)[C@H](CCCNC(=N)N)NC(=O)[C@H](CCC(N)=O)NC(=O)[C@H](CCCNC(=N)N)NC(=O)[C@H](CCCNC(=N)N)NC(=O)[C@H](CCCCN)NC(=O)[C@H](CCCCN)NC(=O)[C@H](CCCNC(=N)N)NC(=O)CNC(=O)[C@@H](N)Cc1ccc(O)cc1)C(C)C)C(C)C)C(=O)N[C@@H](CS)C(=O)N[C@@H](C)C(=O)N[C@H](C(N)=O)[C@@H](C)O [HV-3]
HV-3 in supernatant of plasma after protein precipitation ([1]; mice, pump implantation): not detectable | HV-3 in total brain lysates, plasma and precipitated plasma proteins ([1]; mice, pump implantation): can be detected | HV-3 in brain total lysates over time ([1]; mouse brain total lysates without protein precipitation, legend prints HV-3 (1000 nM)): day, one week and two weeks after treatment | mitochondrial membrane potential ([2]; HdhQ111 cells, HV-3 3 uM/day for 3 days versus TAT): markedly improved the mitochondrial membrane potential | mitochondrial membrane potential in presence of VCP siRNA ([2]; HdhQ111 cells, HV-3 + VCP siRNA): no additional protection on the MMP | mitochondrial membrane potential, wt ([2]; wt counterparts of the HD models): only minor effects
